The source of these data is paper PMC4418665, “Cyclization of the Urokinase Receptor-Derived Ser-Arg-Ser-Arg-Tyr Peptide Generates a Potent Inhibitor of Trans-Endothelial Migration of Monocytes” (PLoS ONE, 2015).

SMILES strings stand for the structures. Peptide text beside a SMILES is read from it. A value given as a limit tells only on which side of the number the result lay.

Data set [1] is described as follows: Serum stability in human serum (RP-HPLC). To be noted: 37°C, peptide 10^-2 mol/L, acetonitrile precipitation; for remaining at 1 h: RP-HPLC C18, % of concentration at time 0, read-out: residual concentration after one hour of exposure to serum; for remaining at 24 h: RP-HPLC C18, % of concentration at time 0, read-out: residual concentration after 24 hours in serum. Type of data set: in vitro ADME. On the procedure:
Cyclization of peptides listed in Table 1was obtained as described in the Material and Methods, using the strategy depicted in the S1 Fig. The stability of the linear peptide Ser-Arg-Ser-Arg-Tyr (SRSRY) and cyclized peptide Ser-Arg-Ser-Arg-Tyr [SRSRY] in human serum was investigated through incubation of the peptide at a 10^–2 mol/L in human serum and samples were taken at different time points and analysed by Reversed-phase chromatography (RP-HPLC). Serum-dependent degradation of peptides was monitored for up to 24 hours.
Fig 1 Stability of SRSRY and [SRSRY] peptides in human serum. The stability of [SRSRY] and SRSRY was performed by the injection of the peptide at a 10^–2 mol/L in human serum at 37°C. Intervals of analysis by RP-HPLC on the compound incubated in serum were carried out growing with time from 1 to 24 hours. Values are expressed as a percentage of peptide concentration assessed at time 0. [SRSRY]
The stability of SRSRY and [SRSRY] was investigated in human serum. The peptides were incubated at 37°C in human serum at a concentration of 10^-2mol/L. Aliquots ([…]) of serum were removed at time points varying from 0, 1, 2, 4, 6, and 24 hours and acetonitrile ([…]) was added to each aliquot before centrifuging (13000 rpm, 15 min). Aliquots ([…]) of the supernatant were then analyzed by RP-HPLC after passing through Phenomenex Luna 100A C18 5μ, linear gradient from 0–90% acetonitrile in water over 25 minutes.

Data set [2] addresses T1, FPR1 (Homo sapiens, UniProt P21462).
T1 sequence (P21462 1-350): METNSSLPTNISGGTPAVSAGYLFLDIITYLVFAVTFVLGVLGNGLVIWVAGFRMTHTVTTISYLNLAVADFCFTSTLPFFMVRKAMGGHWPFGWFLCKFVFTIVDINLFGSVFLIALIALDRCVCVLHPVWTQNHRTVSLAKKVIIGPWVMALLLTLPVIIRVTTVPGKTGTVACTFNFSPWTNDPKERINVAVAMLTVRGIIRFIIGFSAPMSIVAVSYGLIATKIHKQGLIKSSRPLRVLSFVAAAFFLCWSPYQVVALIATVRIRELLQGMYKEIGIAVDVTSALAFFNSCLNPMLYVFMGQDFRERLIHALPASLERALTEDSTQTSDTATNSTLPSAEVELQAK
Put plainly: Ligand binding assay, competition with FITC-fMLF at 4°C, RBL-2H3/ETFR cells. Set-up: expressed in transfected cells. To be noted: 100 nM peptide pre-incubated 60 min at 4°C, then 10 nM FITC-fMLF 60 min at 4°C; cell-associated fluorescence; triplicates. On the procedure: We have previously documented that SRSRY competes with the bacterial-derived N-formyl-methionyl-leucyl-phenylalanine peptide (fMLF) for binding to FPR type 1 (FPR1) and that both SRSRY and fMLF promote cell migration by triggering FPR1 internalization. […] Quantification of cell-associated fluorescence was assessed by reading cell lysates with a fluorescence plate reader. RBL-2H3 cells lack FPR1, thus they display very low uptake that was not saturable with unlabeled fMLF (Fig 2A). […] To evaluate the effect of [SRSRY] on agonist-dependent FPR1 internalization, binding experiments were performed at 37°C. […] Thus, we assessed whether [SRSRY] elicits effects on fMLF-directed cell migration. RBL-2H3/ETFR cell migration toward 10 nM fMLF was monitored in real-time for 4 hours as Cell Index changes due to the adhesion of migrating cells to microelectrodes using the xCELLigence RTCA technology as previously described. […]
Fig 2 Both linear and cyclic SRSRY peptides bind to FPR1. […] Fluorimetric measurement of cell-associated fluorescence was assed using 485 nm excitation and 535 nm emission filters. Data are expressed as a percentage of the fluorescence associated to RBL-2H3 cells exposed to FITC-fMLF alone (CTL = 100%) and represent a mean ± SD from triplicates. *Statistical significance (t-test) against None with p<0.001. […] Cell migration of RBL-2H3/ETFR cells monitored by the xCELLigence system. […]

For the compound `N=C(N)NCCC[C@H](NC(=O)[C@H](CO)NC(=O)[C@H](CCCNC(=N)N)NC(=O)[C@@H](N)CO)C(=O)N[C@@H](Cc1ccc(O)cc1)C(N)=O` [SRSRY, H-Ser-Arg-Ser-Arg-Tyr-NH2] (H-SRSRY-NH2), in data set [1], the remaining at 1 h was below 75% and the remaining at 24 h is below 50%. Besides, the “binding of FITC-fMLF to RBL-2H3/ETFR cells” value in data set [2] was “reduced to the basal level”.
`N=C(N)NCCC[C@@H]1NC(=O)[C@H](CO)NC(=O)[C@H](Cc2ccc(O)cc2)NC(=O)[C@H](CCCNC(=N)N)NC(=O)[C@H](CO)NC1=O` [[SRSRY], [Ser-Arg-Ser-Arg-Tyr]] (cyclo(RSRYS)): in data set [1], the remaining at 1 h was below 85% and the remaining at 24 h was above 80%. Moreover, the “binding of FITC-fMLF to RBL-2H3/ETFR cells” value in data set [2] is “inhibits binding of fluorescent agonist to RBL-2H3/ETFR cells to a similar extent as compared to fMLF or SRSRY”.
